Like-named read-outs stand apart in the source and are kept apart here. One block for each compound: values may come before it.
What was measured:
[1] = cited from earlier work
[2] = bleeding trauma patients, cited from earlier work
[3] = Pharmacokinetics of TXA in swine plasma after IV and IM administration; type: in vivo, domestic pigs; settings: for Cmax: read-out: Cmax range; for duration of effective plasma concentration (FIG. 13): effective level about 10 to about 15 ug/ml; for time effective TXA levels are maintained (FIG. 13 legend): target about 15 ug/mL
Protocol: Studies of pharmacokinetics (PK) and pharmacodynamics (PD) of TXA were performed in swine conducted in compliance with Good Laboratory Practice (GLP) standards. All facilities and activities were accredited in accordance with GLP and ISO9001 (2015).
Eighteen domestic pigs were assigned to four test groups. Group 1: Control, IM administered with vehicle (0.9% NaCl, pH 3-4, w/v), two animals were administered 2 mL vehicle, one animal administered 4 mL vehicle.
IM injections were performed using an auto-injector. […] PK analysis was noncompartmental. Following sacrifice, animals were subjected to a full detailed necropsy and histopathological evaluation performed on injection sites and major organs.
Additional blood samples were collected for Complete Blood Count (CBC), biochemistry profile and prothrombin time/partial thromboplastin time (PT/PTT) at baseline, 1, 3, and 72 hr post dosing. For thromboelastographic (TEG) analysis blood was collected at base line, 1, 3 and 6 hr post dosing. The study was conducted over 5 separate dosing sessions. For each session the animals were acclimatized for at least 4 days prior to Central Venous Catheter (CVCs) placement procedure. All animals were sacrificed 72 hours post treatment and were subjected to a full gross necropsy. Organ samples and injection sites were collected for histopathological analysis.
Pharmacokinetic and bioanalytical analysis of Tranexamic acid, based on plasma samples, was performed. On the date of analysis, plasma samples were thawed at room temperature, along with calibration and QC samples. 50 μL of plasma were taken for analysis. Tranexamic acid and its internal standard were separated from pig plasma by protein precipitation. The samples were analyzed by a validated high-performance liquid chromatography-mass spectrometry/mass spectrometry (HPLC-MS/MS) method, using Hilic Silica 3 μm column with an electro-spray interface, in a positive ion mode.

fibrinolysis = settings: in vitro and in vivo pharmacodynamics studies (Picetti et al., 2019); cited from earlier work
[4] = adult patients with traumatic cardiac arrest, prehospital administration; cited from earlier work

SMILES: OCc1ccccc1 [benzyl alcohol]
cutaneous anesthesia ([1]; intradermal 1 ml 0.9% benzyl alcohol with epinephrine): prolonged cutaneous anesthesia
pain on injection ([1]; versus lidocaine with epinephrine): significantly less painful on injection

AUC(0-inf) ([3]; pig, plasma, im, 1 g, swine Group 3: 1 g TXA IM, n=5, read-out: AUCINF_pred range): 81500 to 90300 ng·h/mL
Tmax ([3]; pig, plasma, im, 1 g, swine Group 3: 1 g TXA IM, n=5, read-out: Tmax range): 15 to 120 min
AUC(0-inf) ([3]; pig, plasma, im, 1 g, swine Group 3: 1 g TXA IM, n=5, read-out: mean AUCINF_pred (converted)): 84800 ng·h/mL
Tmax ([3]; pig, plasma, im, 1 g, swine Group 3: 1 g TXA IM, read-out: mean Tmax (converted)): 44 min
Cmax ([3]; pig, plasma, im, 1 g): 20100 to 34800 ng/mL
AUC(0-inf) ([3]; pig, plasma, im, 2 g, swine Group 4: 2 g TXA IM, n=5, read-out: AUCINF_pred range): 134000 to 148000 ng·h/mL
Tmax ([3]; pig, plasma, im, 2 g, swine Group 4: 2 g TXA IM, n=5, read-out: Tmax range): 30 to 60 min
AUC(0-inf) ([3]; pig, plasma, im, 2 g, swine Group 4: 2 g TXA IM, n=5, read-out: mean AUCINF_pred (converted)): 141000 ng·h/mL
Tmax ([3]; pig, plasma, im, 2 g, swine Group 4: 2 g TXA IM, read-out: mean Tmax (converted)): 41.8 min
Cmax ([3]; pig, plasma, im, 2 g): 35700 to 47000 ng/mL
bioavailability ([3]; pig, plasma, intramuscular, 1 g): > 100%
Tmax ([3]; pig, plasma, iv, 1 g, swine Group 2: 1 g TXA IV, n=5, read-out: Tmax range): 11 to 12 min
AUC(0-inf) ([3]; pig, plasma, iv, 1 g, swine Group 2: 1 g TXA IV, n=5, read-out: mean AUCINF_pred (converted)): 74000 ng·h/mL
Tmax ([3]; pig, plasma, iv, 1 g, swine Group 2: 1 g TXA IV, read-out: mean Tmax (converted)): 11.2 min
Cmax ([3]; pig, plasma, iv, 1 g): 40900 to 78500 ng/mL
mean peak plasma concentration (mean concentration-time curve, FIG. 9) ([3]; swine Group 2, n=5: 1 g TXA IV, 10 mL of 100 mg/mL TRANEX injection pH 6.5-8 over 10 min): 64 µg/mL
time of mean peak plasma concentration ([3]; swine Group 2: 1 g TXA IV, time from end of 10 min IV injection): 1 min
mean peak plasma concentration (mean concentration-time curve, FIG. 9) ([3]; swine Group 3, n=5: 1 g TXA IM, 2 mL of 500 mg/mL formulation A pH 3-4): 24.2 µg/mL
time of mean peak plasma concentration ([3]; swine Group 3: 1 g TXA IM, post dosing): ≤ 20 min
mean peak plasma concentration (mean concentration-time curve, FIG. 9) ([3]; swine Group 4, n=5: 2 g TXA IM, 4 mL of 500 mg/mL formulation A pH 3-4): 41 µg/mL
time of mean peak plasma concentration ([3]; swine Group 4: 2 g TXA IM, post dosing): ≤ 45 min
duration of effective plasma concentration (FIG. 13) ([3]; swine, 1 g IM TXA): about 130 minutes
duration of effective plasma concentration (FIG. 13) ([3]; swine, 1 g IV TXA): about 80 minutes
dose proportionality ([3]; swine, 1 g versus 2 g IM): exhibits dose proportionality
duration of effective plasma concentration (FIG. 13) ([3]; swine, 2 g IM TXA): about 200 minutes
time effective TXA levels are maintained (FIG. 13 legend) ([3]; swine, IM administration): > 130 min
time effective TXA levels are maintained (FIG. 13 legend) ([3]; swine, IV administration): < 105 min
SMILES: NC[C@H]1CC[C@H](C(=O)O)CC1 [TXA, trans-4-(aminomethyl) cyclohexanecarboxylic acid]
bioavailability of IM TXA ([2]; 1 gram IM as two 5 ml (0.5 g each) injections): 77%
tolerability of IM injections ([2]; 1 gram IM as two 5 ml injections): well-tolerated
time to therapeutic plasma concentrations ([2]; after IM injection of 1 gram): ≤ 15 min
TXA concentration in blood or plasma giving substantial inhibition of fibrinolysis (fibrinolysis): 10 to 15 µg/mL

SMILES: CNC[C@H](O)c1ccc(O)c(O)c1 [epinephrine]
short-term survival [4]: increased short-term survival

— patent US12636249B2, “Concentrated injectable tranexamic acid compositions and methods of use thereof” (Galen Limited, priority 2022, dated 2026)
